Experiment: Dissolution of brightener from granular laundry detergent formulations in hardness water, UV-Vis absorbance of filtered solution at 350 nm
Assay type: physicochemical
Settings: in comparison with the control formulation with LAS only; in words
Experimental: The total surfactant levels for Formulations A-H are maintained the same at 20 wt %.
Prepare 10 gpg hardness water (Ca:Mg=3:1) and place 1L of such hardness water in each of 8 beakers separately. Weight a 6.12g sample from each of the Formulations A-H hereabove respectively, and put the samples into beakers with hardness water on the maganetic stirrers. Stir for 15 mins to dissolve the sample.
Take about 8 ml solution by using a 10m1 injection syringe. Install a 0.45pm filter on the injection syringe for filtering the solution when it is injected out of the syringe. Inject the filtered solution into a sample cuvette of the UV-Vis spectrophotometer. Place the sample cuvette in a measuring position of the UV-Vis spectrophotometer. Read and record the absorbance (ABS) of solutions at a UV wavelength of 350nm respectively.

dissolution of the brightener in a surfactant system containing LAS, mid-cut AS, and soap: much less
Compound: O=S(=O)([O-])c1ccccc1C=Cc1ccc(-c2ccc(C=Cc3ccccc3S(=O)(=O)[O-])cc2)cc1.[Na+].[Na+] [Florescent Brigthener 351, disodium 2,2′-([1,1′-biphenyl]-4,4′-diyldivinylene)bis(benzenesulphonate)]

Source: US20180023041A1, “CLEANING COMPOSITIONS CONTAINING A DIAMINOSTILBENE BRIGHTENER” (The Procter & Gamble Company, priority 2016, published 2018)
